Reference: patent US12280121B2, “Immunoconjugates and methods” (Immunome, Inc., priority 2021, dated 2025)
Counter-ions that a name gives are not always drawn. Like-named read-outs stand apart in the source and are kept apart here.

Tests used:
[1] = test system: MDA-MB-468; assay: CTG assay (CellTiter-Glo cell viability), MDA-MB-468, payload compounds; type: cell-based; conditions: Homo sapiens, MDA-MB-468; 72 h, CellTiter-Glo; read-out: MDA-MB-468 IC50
Description: (§1) The CTG assay is a method of determining the number of viable cells in culture based on quantitation of the ATP present, an indicator of metabolically active cells. The cell assay requires the addition of a single reagent, Cell Titer Glo, in which cells are lysed and generation of a luminescent signal is produced. The luminescent signal is proportional to the amount of ATP present. The amount of ATP is directly proportional to the number of cells present in culture. For our assay, cells were ensured to be in log-phase for either Jeko-1 or MDA-MB-468. Cells were transferred to 96 wells and treated with compounds in three-fold serial dilution starting from 1 μM to 0.0000508 μM (10 points dilution), for 72 h. Cell viability was analyzed with CellTiter-Glo® Luminescent Cell Viability Assay (Promega) following manufactures' instruction. Percentage of viable cells in each compound concentration was determined by normalizing with the luminescence of vehicle control and plotted into percentage of viability versus dose response curve by nonlinear fit in GraphPad Prism software.

[2] = Human liver microsome clearance (HLM CL); type: in vitro ADME
Method: Working solution was prepared by adding 5 μL of compound and control stock solution (10 mM in dimethyl sulfoxide, DMSO) to 495 μL of acetonitrile (ACN) (intermediate solution concentration: 100 μM, 99% CAN and 1% DMSO. The appropriate concentrations of microsome working solutions were prepared in 100 mM potassium phosphate buffer. After reaction plates containing mixtures of compound and microsomes were pre-incubated at 37° C. for 10 min, […] of 2 mM of NADPH and 2 mM of MgCl2 solution was added to start the reaction. The final concentrations of incubation medium were as follows: microsome—0.5 mg protein/mL, test compound/control […], NADPH—1 mM, MgCl2 —1 mM, acetonitrile 0.99%, DMSO 0.01%. Incubations were performed at 37° C. for 60 min. Samples were taken out at TO, T5, T15, T30, T45 and T60, which was added intermediately to the ice-cold stop solution (acetonitrile with 200 ng/mL of tobutamide and labetalol as internal standard) (125 μl), shaken for 10 min, centrifuged at 4000 rpm for 20 min at 4° C. Analytical plates were analyzed by LCMS.
(§2) Human liver microsome clearance assay assess metabolism by the cytochrome P450 system (phase I enzymes). These enzymes oxidize substrates by incorporating oxygen atoms into hydrocarbons, thus causing the introduction of hydroxyl groups, or N- O- and S-dealkylation of substrates and forming more polar products easier to be cleared. Human hepatocyte clearance assay measures more broadly the overall cellular metabolism of the test compound (phase I and phase II enzyme pathways). Phase II enzymes catalyze the conjugation reaction of xenobiotic metabolites and charged species, such as glutathione, sulfate, glycine, or glucuronic acid to form even more polar compounds for easier clearance.

[3] = test system: Jeko-1; assay: CTG assay (CellTiter-Glo cell viability), Jeko-1, payload compounds; type: cell-based; conditions: Homo sapiens, JeKo-1; 72 h, CellTiter-Glo; read-out: JeKo-1 IC50
Description: as §1

[4] = PAMPA (Parallel Artificial Membrane Permeability Assay); type: physicochemical
Description: PAMPA is a method which determines the permeability of substances from a donor compartment, through a lipid-infused artificial membrane into an acceptor compartment. See Ottaviani, G.; Martel, S.; Carrupt, P-A. “Parallel Artificial Membrane Permeability Assay: A New Membrane for the Fast Prediction of Passive Human Skin Permeability”, Journal of Medicinal Chemistry, 2006, 49 (13), 3948-3954). A multi-well microtitre plate is used for the donor and a membrane/acceptor compartment is placed on top; the whole assembly is commonly referred to as a “sandwich”. At the beginning of the test, the drug is added to the donor compartment, and the acceptor compartment is drug-free. After an incubation period which may include stirring, the sandwich is separated, and the amount of drug is measured in each compartment. Mass balance allows calculation of drug that remains in the membrane.
The PAMPA was performed by Pion Inc using the GIT-0 lipid and 5 μM donor solution in pH 5.0 and pH 7.4 PRISMA buffer (containing 0.05% DMSO). The higher PAMPA data has been associated with better bystander killing. (Ogitani Y.; Hagihara K.; Oitate, M.; Naito, H.; Agatsuma T. “Bystander killing effect of DS-8201a, a novel anti-human epidermal growth factor receptor 2 antibody-drug conjugate, in tumors with human epidermal growth factor receptor 2 heterogeneity” Cancer Science, 2016, 107 (7), 1039-1046).

[5] = Human hepatocyte clearance (HHEP CL); type: in vitro ADME; set-up: CLint scaled / half-life: dose or concentration left out as unconfirmed; conditions: both sexes
Method: Suspensions of human hepatocytes (from 10 mixed gender human donors, final concentration 0.5×10^6 cell/mL) in Williams' E medium were incubated for 90 min with a test compound (0.90% acetonitrile and 0.10% DMSO, final concentration […]) and positive controls (7-Ethoxycoumarin, 7-Hydroxycoumarin, 0.90% acetonitrile and 0.10% DMSO, final concentration […]), with constant shaking at about 600 rpm at 37° C. in an incubator at 5% CO2 and 95% humidity. The total volume of incubation was 200 μl. A sample ([…]) was taken out at TO, 15, 30, 60 and 90 min, which was added intermediately to the ice-cold stop solution (acetonitrile with 200 ng/mL of tobutamide and labetalol as internal standard) (125 μl), and vortexed at 500 rpm for 10 min, centrifuged at 3220×g for 20 min at 4° C. Analytical plates are sealed and stored at 4° C. until LCMS analysis. Viability of hepatocytes at pre-incubation was determined to be 84.5%.
as §2

Row | Structure (SMILES) | IC50 [1] [nM] | CLint scaled ([2]; human, microsomes) [mL/min/kg] | half-life ([2]; human, microsomes) [min] | IC50 [3] [nM] | Papp at 5 μM ([4]; pH 5) [×10⁻⁶ cm/s] | Papp at 5 μM ([4]; pH 7.4) [×10⁻⁶ cm/s] | CLint scaled ([5]; human, hepatocytes) [mL/min/kg] | half-life ([5]; human, hepatocytes) [min] | PAMPA Pe (10^−6 cm/s) pH 5.0 ([4]; 5 μM, pH 5) | half-life ([2]; human liver microsomes 0.5 mg protein/mL, NADPH, 60 min, read-out: HLM (T1/2)) [min] | CLint scaled ([2]; human liver microsomes 0.5 mg protein/mL, NADPH, 60 min, read-out: HLM Cl (human liver microsome clearance)) [mL/min/kg] | Papp at 5 μM ([4]; pH 5.0 PRISMA buffer, GIT-0 lipid, 5 μM donor solution, read-out: PAMPA Pe pH 5.0) [×10⁻⁶ cm/s] | Papp at 5 μM ([4]; pH 7.4 PRISMA buffer, GIT-0 lipid, 5 μM donor solution, read-out: PAMPA Pe pH 7.4) [×10⁻⁶ cm/s] | half-life ([5]; human hepatocytes, 90 min incubation, read-out: HHEP (T1/2)) [min] | CLint scaled ([5]; human hepatocytes, 90 min incubation, read-out: HHEP Cl (human hepatocytes intrinsic clearance)) [mL/min/kg]
1 | CC[C@@]1(O)C(=O)OCc2c1cc1n(c2=O)Cc2c-1nc1cc(F)c(C)c3c1c2[C@H](O)CC3 (single isomer, unassigned) [Compound 3-34] | 6 | 32.1 | 38.8 | 0.59 | 78.3 | 8.2 | 79.2 | 48.7 |  |  |  |  |  |  | 
2 | CC[C@@]1(O)C(=O)OCc2c1cc1n(c2=O)Cc2c-1nc1cc(F)c(C)c3c1c2[C@@H](O)CC3 (single isomer, unassigned) [Compound 3-35] | 4.7 | 20.2 | 61.8 | 0.46 | 66.1 | 11.1 | 50.4 | 76.5 |  |  |  |  |  |  | 
3 | CC[C@@]1(O)C(=O)OCc2c1cc1n(c2=O)Cc2c-1nc1cc(F)c(C)c3c1c2[C@H](OCCO)CC3 (single isomer, unassigned) [Compound 5-47] | 6.3 | 17.3 | 72.2 | 1.5 |  | 11.6 | 53.7 | 71.7 | 76/.1 10^−6 cm/s |  |  |  |  |  | 
4 | CC[C@@]1(O)C(=O)OCc2c1cc1n(c2=O)Cc2c-1nc1cc(F)c(C)c3c1c2[C@@H](N)CCC3 (single isomer, unassigned) [Compound 7-59, methanesulfonate] | 14.8 | 33.7 | 37 | 2.9 |  |  | 69.4 | 55.5 |  |  |  |  |  |  | 
5 | CC[C@@]1(O)C(=O)OCc2c1cc1n(c2=O)Cc2c-1nc1cc(F)c(C)c3c1c2[C@H](N)CCC3 (single isomer, unassigned) [Compound 7-60, methanesulfonate] | 14.9 | 40.8 | 30.6 | 2.1 |  |  | 64.5 | 59.7 |  |  |  |  |  |  | 
6 | CC[C@@]1(O)C(=O)OCc2c1cc1n(c2=O)Cc2c-1nc1cc(F)c(C)c3c1c2[C@@](C)(N)CC3 (single isomer, unassigned) [Compound 8-71, hydrochloride] | 6.1 | 41.9 | 30 | 0.44 | 67.7 | 8.6 | 81.7 | 47 |  |  |  |  |  |  | 
7 | CC[C@@]1(O)C(=O)OCc2c1cc1n(c2=O)Cc2c-1nc1cc(F)c(C)c3c1c2[C@](C)(N)CC3 (single isomer, unassigned) [Compound 8-72, hydrochloride] | 7.7 | 35.9 | 35 | 1.5 | 80.8 | 8.4 | 79.1 | 49 |  |  |  |  |  |  | 
8 | CC[C@@]1(O)C(=O)OCc2c1cc1n(c2=O)Cc2c-1nc1cc(F)c(C)c3c1c2[C@@](C)(O)CC3 (single isomer, unassigned) [Compound 13-84] | 5.9 | 58.9 | 21 | 0.61 | 64.4 | 7.6 | 112 | 34 |  |  |  |  |  |  | 
9 | CC[C@@]1(O)C(=O)OCc2c1cc1n(c2=O)Cc2c-1nc1cc(F)c(C)c3c1c2[C@](C)(O)CC3 (single isomer, unassigned) [Compound 13-85] | 36.2 | 58.3 | 21 | 2.6 | 69.7 | 6 | 75.7 | 51 |  |  |  |  |  |  | 
10 | CC[C@@]1(O)C(=O)OCc2c1cc1n(c2=O)Cc2c-1nc1cc(F)c(C)c3c1c2[C@@](C)(OCCO)CC3 (single isomer, unassigned) [Compound 14-91] | 17.6 | 46.5 | 26.8 | 1.4 | 67.8 | 5.6 | 63.4 | 60.8 |  |  |  |  |  |  | 
11 | CC[C@@]1(O)C(=O)OCc2c1cc1n(c2=O)Cc2c-1nc1cc(F)c(C)c3c1c2[C@](C)(OCCO)CC3 (single isomer, unassigned) [Compound 14-92] | 14.2 | 19.2 | 65 | 1.2 | 69.1 | 4.5 | 51.3 | 75.1 |  |  |  |  |  |  | 
12 | CC[C@@]1(O)C(=O)OCc2c1cc1n(c2=O)Cc2c-1nc1cc(F)c(C)c3c1c2[C@](C)(NC(=O)CO)CC3 [Compound 10-75, N-((1R,9S)-9-ethyl-5-fluoro-9-hydroxy-1,4-dimethyl-10,13-dioxo-1,2,3,9,10,12,13,15-octahydrobenzo[de]pyrano[3′,4′:6,7]indolizino[1,2-b]quino-lin-1-yl)-2-hydroxyacetamide] | 467 | 27.2 | 45.9 | 58.1 | 46.8 | 3.9 | 40.8 | 94.4 |  |  |  |  |  |  | 
13 | CC[C@@]1(O)C(=O)OCc2c1cc1n(c2=O)Cc2c-1nc1cc(F)c(C)c3c1c2[C@@](C)(NCCO)CC3.Cl [Compound 16-95, (1S,9S)-9-ethyl-5-fluoro-9-hydroxy-1-((2-hydroxyethyl)amino)-1,4-dimethyl-2,3,12,15-tetrahydrobenzo[de]pyrano[3′,4′:6,7]indolizino[1,2-b]quinoline-10,13(1H,9H)-dione hydrochloride] | 13.7 |  |  | 1.3 |  |  |  |  |  | 49.1 | 25.4 | 63.1 | 5.5 | 130 | 29.6
